Laboratory results as given in patent publication US11185488B2, “Skin external preparation composition for moisturizing skin containing 1,2,3,4,6-penta-O-galloyl-β-D-glucose” (AMOREPACIFIC CORPORATION, priority 2017, dated 2021).

Assays:
Type in all cases: cell-based
filaggrin = test: Gene expression level of filaggrin (RNA separation and RT-PCR); conditions: neonatal keratinocytes, 1 ppm, 2 days; for Increase in filaggrin expression(%): corrected to RPL13A
Protocol: Neonatal keratinocytes (obtained from Lonza) was dispensed into a 60 mm cell culture dish at a density of 1.25×10^6 cells/dish using KGM medium, and then cultured at 37° C. in a 5% CO2 incubator up to about 80% confluency. Then, eight compounds including PGG from soybean, green tea, ginseng, and other natural products were selected as test substances (Table 1), and the cells were treated with each of these compounds at 1 ppm and cultured for 2 days. After the culture, the medium was removed, and 1 ml of Trizol (Invitrogen) was added, and mRNA was isolated according to an RNA isolation method of Invitrogen. mRNA was quantified at 260 nm using an ultraviolet detector (Hewlett Packard), and RT-PCR (Reverse Transcription-Polymerase Chain Reaction) was performed. For genetic analysis of each sample, correction was performed based on the complementary gene, RPL13A, and the expression level of filaggrin for each sample is shown in Table 1 below.

loricrin (LOR) = test: Gene increase experiment for loricrin (LOR) (RNA isolation and RT-PCR); conditions: keratinocytes, 4 days, corrected to RPLP0, FIG. 2
Protocol: (§1) Neonatal keratinocytes was dispensed into a 60 mm cell culture dish at a density of 1.25×10^6 cells/dish using KGM medium, and then cultured at 37° C. in a 5% CO2 incubator up to about 80% confluency. Then, the keratinocytes were treated with 0.2 ppm or 1 ppm of PGG, cultured for 4 days. After the culture, the medium was removed and 1 ml of Trizol (Invitrogen) was added thereto, and mRNA was isolated according to the RNA isolation method of Invitrogen. After quantifying mRNA at 260 nm using a CV detector (HEWLETT PACKARD), RT-PCR (Reverse transcription-polymerase chain reaction) was performed by using the primers of LOR and IVL (LOR-HS01894962_s1, IVL HS00846307_s1, respectively, both of which were obtained from Life Technologies). For genetic analysis of each sample, the correction was performed based on the complementary gene, RPLP0, and the results are shown in Table 2 below.

Neonatal keratinocytes = test: Evaluation of cytotoxicity of PGG (cell viability); conditions: PGG 0, 1, 2, 4 ppm, cultured 4 days, FIG. 1
Protocol: Neonatal keratinocytes (obtained from Lonza) was dispensed into a 60 mm cell culture dish at a density of 1.25×10^6 cells/dish using KGM medium, and then cultured at 37° C. in a 5% CO2 incubator up to about 80% confluency. Then, the cells were treated with PGG at concentrations of 0 ppm, 1 ppm, 2 ppm, and 4 ppm, cultured for 4 days, and then the viability of the cells was confirmed.

involucrin (IVL) = test: Gene increase experiment for involucrin (IVL) (RNA isolation and RT-PCR); conditions: keratinocytes, 4 days, corrected to RPLP0, FIG. 2
Protocol: as §1

Row | SMILES | Increase in filaggrin expression(%) (filaggrin) | also measured
1 | O=c1c(O[C@@H]2O[C@H](CO)[C@@H](O)[C@H](O)[C@H]2O)c(-c2ccc(O)cc2)oc2cc(O)cc(O)c12 [Astragalin] | 105% | –
2 | Oc1cc(O)c2c(c1)O[C@H](c1ccc(O)c(O)c1)[C@H](O)C2 [(−)-Epicatechin(EC), (−)-Epicatechin] | 108% | –
3 | C[C@]12C[C@@H](O)[C@@H]3C[C@@]1(O[C@@H]1O[C@H](CO)[C@@H](O)[C@H](O)[C@H]1O)[C@@]3(COC(=O)c1ccccc1)C(=O)O2 [Albiflorin] | 107% | –
4 | O=c1c(-c2ccc(O)c(O)c2)coc2cc(O)ccc12 [7,3′,4′-trihydroxyisoflavone] | 110% | –
5 | O=c1c(-c2ccc(O)cc2)coc2cc(O)c(O)cc12 [6,7,4′-trihydroxyisoflavone] | 103% | –
6 | C[C@@]12C[C@@]3(O)O[C@@H](O1)[C@]1(COC(=O)c4ccccc4)[C@H]3C[C@@]12O[C@@H]1O[C@H](CO)[C@@H](O)[C@H](O)[C@H]1O [Paeoniflorin] | 116% | –
7 | COc1cc([C@H]2OC[C@H]3[C@@H]2CO[C@@H]3c2cc(OC)c(O)c(OC)c2)cc(OC)c1O [Syringaresinol] | 103% | –
8 | O=C(OC[C@H]1O[C@@H](OC(=O)c2cc(O)c(O)c(O)c2)[C@H](OC(=O)c2cc(O)c(O)c(O)c2)[C@@H](OC(=O)c2cc(O)c(O)c(O)c2)[C@@H]1OC(=O)c1cc(O)c(O)c(O)c1)c1cc(O)c(O)c(O)c1 [PGG, 1,2,3,4,6-penta-O-galloyl-β-D-glucose] | 229% | expression level of loricrin gene compared to control group (loricrin (LOR); 0.2 ppm): almost no difference compared to the control group; increase of loricrin gene compared to control group (loricrin (LOR); 1 ppm): ≥ 2 times; cell viability (Neonatal keratinocytes): no significant difference in cell viability; expression level of involucrin gene compared to control group (involucrin (IVL); 0.2 ppm): three-fold or more increase; increase of involucrin gene compared to control group (involucrin (IVL); 1 ppm): 5 times; rate of increase in the expression of filaggrin versus control group (filaggrin): more than 2 times
